This note sets out measurements from patent publication US20260317356A1, “SMALL MOLECULE MODULATORS OF OGG1” (AZKARRA THERAPEUTICS, INC., priority 2023, published 2026).

Structures are written as SMILES.

One experiment deals with hOGG1 (Homo sapiens, UniProt O15527). Briefly: Biochemical fluorescence assay to measure enzymatic activity of hOGG1 (OGG1/APEX IC50). The conditions noted are these: 1 nM OGG1+2 nM APEX+6 nM dsDNA (8-oxo-dG substrate); pH 7.5; RT 40 min; read-out: OGG1/APEX IC50. Details: Protein His-hOGG1 (12-323) was prepared; His (N); host or cells: E. coli. An outline of the steps: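 His-hOGG1 (12-323, E. coli) at 1 nM with 2 nM hAPE1/APEX1, preincubated 20 min RT with compound. Then 6 nM 8-oxo-dG dsDNA substrate added, 40 min at RT in Tris pH 7.5, 100 mM KCl. TAMRA fluorescence (Ex520/Em600) converted to % inhibition vs controls; IC50 from 3-parameter fit of 10-point curve.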
hOGG1, sequence (O15527 12-323): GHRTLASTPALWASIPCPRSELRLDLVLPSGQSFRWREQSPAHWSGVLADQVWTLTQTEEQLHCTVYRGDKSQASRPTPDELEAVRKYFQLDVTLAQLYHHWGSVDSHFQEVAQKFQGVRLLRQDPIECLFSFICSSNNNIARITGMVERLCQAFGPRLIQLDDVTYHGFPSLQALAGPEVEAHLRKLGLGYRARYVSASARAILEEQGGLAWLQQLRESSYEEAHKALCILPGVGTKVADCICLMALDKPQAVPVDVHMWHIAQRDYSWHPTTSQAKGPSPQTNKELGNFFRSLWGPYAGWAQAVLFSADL
In the case of `COc1cc(NC(=O)[C@H]2CC[C@@H](n3oc4c(Br)cccc4c3=O)CC2)ccc1C` [Example 184, (1s,4s)-4-(7-Bromo-3-oxobenzo[d]isoxazol-2(3H)-yl)-N-(3-methoxy-4-methylphenyl)cyclohexanecarboxamide], the IC50 was > 10 µM.
The same measure, in the same setting: under `O=C1c2cccc(Br)c2CN1[C@H]1CC[C@@H](C(=O)Nc2ccc3c(c2)OCO3)CC1` [Example 185, (1s,4s)-N-(Benzo[d][1,3]dioxol-5-yl)-4-(4-bromo-1-oxoisoindolin-2-yl)cyclohexanecarboxamide] stands 1 to 10 µM.
Turning to `O=C1c2cccc(Br)c2CN1[C@H]1CC[C@@H](C(=O)Nc2ccc3c(c2)OC(F)(F)O3)CC1` [Example 186, (1s,4s)-4-(4-Bromo-1-oxoisoindolin-2-yl)-N-(2,2-difluorobenzo[d][1,3]dioxol-5-yl)cyclohexanecarboxamide], the IC50 is > 10 µM.
`COc1cc(NC(=O)C[C@H]2C[C@H](N3Cc4c(Br)cccc4C3=O)C2)ccc1C` [Example 187, 2-((1r,3r)-3-(4-Bromo-1-oxoisoindolin-2-yl)cyclobutyl)-N-(3-methoxy-4-methylphenyl)acetamide]: the IC50 was > 10 µM.
Take `COc1cc(NC(=O)C(C)N2CC(N3Cc4c(Br)cccc4C3=O)C2)ccc1C` (centres unmarked) [Example 188, 2-(3-(4-Bromo-1-oxoisoindolin-2-yl)azetidin-1-yl)-N-(3-methoxy-4-methylphenyl)propanamide]: the IC50 was > 10 µM.
For the molecule `COc1cc(NC(=O)[C@H]2CC[C@@H](N3Cc4c(ccc(O)c4Br)C3=O)CC2)ccc1C` [Example 189, (1s,4s)-4-(4-Bromo-5-hydroxy-1-oxoisoindolin-2-yl)-N-(3-methoxy-4-methylphenyl)cyclohexanecarboxamide], the IC50 is 0.1 to 1 µM.
Take `Cn1c(NC(=O)[C@H]2CC[C@@H](N3Cc4c(Br)cccc4C3=O)CC2)nc2ccccc21` [Example 190, (1s,4s)-4-(4-Bromo-1-oxoisoindolin-2-yl)-N-(1-methyl-1H-benzo[d]imidazol-2-yl)cyclohexanecarboxamide]: the IC50 was 1 to 10 µM.
`O=C1c2cccc(Br)c2CN1[C@H]1CC[C@@H](C(=O)Nc2ccc3c(c2)OCCO3)CC1` [Example 191, (1s,4s)-4-(4-Bromo-1-oxoisoindolin-2-yl)-N-(2,3-dihydrobenzo[b][1,4]dioxin-6-yl)cyclohexanecarboxamide]: the IC50 lay within 1 to 10 µM.
Same read-out and setting: under `COc1cc(NC(=O)[C@H]2CC[C@@H](N3Cc4c(C)cc(NCC5CCCN5)cc4C3=O)CC2)ccc1C` (some centres unmarked) [Example 194, (1s,4s)-N-(3-methoxy-4-methylphenyl)-4-(4-methyl-1-oxo-6-(pyrrolidin-2-ylmethylamino)isoindolin-2-yl)cyclohexanecarboxamide] stands < 0.1 µM; under `COc1cc(NC(=O)[C@H]2CC[C@@H](N3Cc4c(C)cc(NCC5CNC5)cc4C3=O)CC2)ccc1C` [Example 195, (1s,4s)-4-(6-(Azetidin-3-ylmethylamino)-4-methyl-1-oxoisoindolin-2-yl)-N-(3-methoxy-4-methylphenyl)cyclohexanecarboxamide], < 0.1 µM.
Still for that read-out and setting: the result for `COc1cc(NC(=O)[C@H]2CC[C@@H](N3Cc4c(Br)cc(NC(=O)Cn5ccnc5)cc4C3=O)CC2)ccc1C` [Example 196, (1s,4s)-4-(6-(2-(1H-Imidazol-1-yl)acetamido)-4-bromo-1-oxoisoindolin-2-yl)-N-(3-methoxy-4-methylphenyl)cyclohexanecarboxamide] reads 0.1 to 1 µM; that for `COc1cc(NC(=O)[C@H]2CC[C@@H](N3Cc4c(O)cccc4C3=O)CC2)ccc1C` [Example 197, (1s,4s)-4-(4-Hydroxy-1-oxoisoindolin-2-yl)-N-(3-methoxy-4-methylphenyl)cyclohexanecarboxamide], 1 to 10 µM.
Regarding `COc1cc(NC(=O)[C@H]2CC[C@@H](N3Cc4c(Br)cc(NCCN(C)C)cc4C3=O)CC2)ccc1C` [Example 198, (1s,4s)-4-(4-Bromo-6-(2-(dimethylamino)ethylamino)-1-oxoisoindolin-2-yl)-N-(3-methoxy-4-methylphenyl)cyclohexanecarboxamide], the IC50 is < 0.1 µM.
`COc1cc(NC(=O)[C@H]2CC[C@@H](N3Cc4c(Br)cc(NC(=O)CN5CCOCC5)cc4C3=O)CC2)ccc1C` [Example 199, (1s,4s)-4-(4-Bromo-6-(2-morpholinoacetamido)-1-oxoisoindolin-2-yl)-N-(3-methoxy-4-methylphenyl)cyclohexanecarboxamide]: the IC50 is 0.1 to 1 µM.
As to `COc1cc(NC(=O)[C@H]2CC[C@@H](N3Cc4c(Br)cc(NC(=O)CN5CCC5)cc4C3=O)CC2)ccc1C` [Example 200, (1s,4s)-4-(6-(2-(Azetidin-1-yl)acetamido)-4-bromo-1-oxoisoindolin-2-yl)-N-(3-methoxy-4-methylphenyl)cyclohexanecarboxamide], the IC50 fell in the range of 0.1 to 1 µM.
For the molecule `COc1cc(NC(=O)[C@H]2CC[C@@H](N3Cc4c(Br)cc(NC(=O)Cc5c[nH]cn5)cc4C3=O)CC2)ccc1C` [Example 201, (1s,4s)-4-(6-(2-(1H-Imidazol-4-yl)acetamido)-4-bromo-1-oxoisoindolin-2-yl)-N-(3-methoxy-4-methylphenyl)cyclohexanecarboxamide], the IC50 was 0.1 to 1 µM.
In the case of `COc1cc(NC(=O)[C@H]2CC[C@@H](N3Cc4c(Br)cc(NC(=O)CN(C)C)cc4C3=O)CC2)ccc1C` [Example 202, (1s,4s)-4-(4-bromo-6-(2-(dimethylamino)acetamido)-1-oxoisoindolin-2-yl)-N-(3-methoxy-4-methylphenyl)cyclohexanecarboxamide], the IC50 lay in the range of 0.1 to 1 µM.
On to `COc1cc(NC(=O)[C@H]2CC[C@@H](N3Cc4c(Br)cc(NCCN5CCOCC5)cc4C3=O)CC2)ccc1C` [Example 203, (1s,4s)-4-(4-Bromo-6-(2-morpholinoethylamino)-1-oxoisoindolin-2-yl)-N-(3-methoxy-4-methylphenyl)cyclohexanecarboxamide], for which the IC50 was in the range of 0.1 to 1 µM.
In the case of `COc1cc(NC(=O)[C@H]2CC[C@@H](N3Cc4c(Br)cc(NC(=O)CCN(C)C)cc4C3=O)CC2)ccc1C` [Example 204, (1s,4s)-4-(4-Bromo-6-(3-(dimethylamino)propanamido)-1-oxoisoindolin-2-yl)-N-(3-methoxy-4-methylphenyl)cyclohexanecarboxamide], the IC50 was < 0.1 µM.
As to `COc1cc(NC(=O)[C@H]2CC[C@@H](N3Cc4c(Br)cc(NCCCN(C)C)cc4C3=O)CC2)ccc1C` [Example 205, (1s,4s)-4-(4-Bromo-6-(3-(dimethylamino)propylamino)-1-oxoisoindolin-2-yl)-N-(3-methoxy-4-methylphenyl)cyclohexanecarboxamide], the IC50 was < 0.1 µM.
The same measure, in the same setting: the result for `COc1cc(NC(=O)[C@H]2CC[C@@H](N3Cc4c(C)cc(O)cc4C3=O)CC2)ccc1C` [Example 206, (1s,4s)-4-(6-Hydroxy-4-methyl-1-oxoisoindolin-2-yl)-N-(3-methoxy-4-methylphenyl)cyclohexanecarboxamide] reads < 0.1 µM; that for `COc1cc(NC(=O)[C@H]2CC[C@@H](N3Cc4c(C)cc(NCCN(C)C)cc4C3=O)CC2)ccc1C` [Example 208, (1s,4s)-4-(6-(2-(Dimethylamino)ethylamino)-4-methyl-1-oxoisoindolin-2-yl)-N-(3-methoxy-4-methylphenyl)cyclohexanecarboxamide], < 0.1 µM.
For the molecule `COc1cc(NC(=O)[C@H]2CC[C@@H](N3Cc4c(C)cc(OCCN(C)C)cc4C3=O)CC2)ccc1C` [Example 209, (1s,4s)-4-(6-(2-(Dimethylamino)ethoxy)-4-methyl-1-oxoisoindolin-2-yl)-N-(3-methoxy-4-methylphenyl)cyclohexanecarboxamide], the IC50 is < 0.1 µM.
Still for that read-out and setting: the result for `COc1cc(NC(=O)[C@H]2CC[C@@H](N3Cc4c(C)cc(C=O)cc4C3=O)CC2)ccc1C` [Example 210, (1s,4s)-4-(6-Formyl-4-methyl-1-oxoisoindolin-2-yl)-N-(3-methoxy-4-methylphenyl)cyclohexanecarboxamide] reads 0.1 to 1 µM.
On to `COc1cc(NC(=O)[C@H]2CC[C@@H](N3Cc4c(C)cc(C(=O)O)cc4C3=O)CC2)ccc1C` [Example 211, 2-((1s,4s)-4-(3-Methoxy-4-methylphenylcarbamoyl)cyclohexyl)-7-methyl-3-oxoisoindoline-5-carboxylic Acid], for which the IC50 lay in the range of 0.1 to 1 µM.
On to `CNC(=O)c1cc(C)c2c(c1)C(=O)N([C@H]1CC[C@@H](C(=O)Nc3ccc(C)c(OC)c3)CC1)C2` [Example 212, 2-((1s,4s)-4-(3-Methoxy-4-methylphenylcarbamoyl)cyclohexyl)-N,7-dimethyl-3-oxoisoindoline-5-carboxamide], for which the IC50 fell in the range of 0.1 to 1 µM.
As for `COc1cc(NC(=O)[C@@H]2[C@@H]3C[C@@H](N4Cc5c(Br)cccc5C4=O)C[C@@H]32)ccc1C` [Example 213, (1R,5S,6s)-3-(4-Bromo-1-oxoisoindolin-2-yl)-N-(3-methoxy-4-methylphenyl)bicyclo[3.1.0]hexane-6-carboxamide], the IC50 lay within 1 to 10 µM.
As to `COc1cc(NC(=O)[C@H]2CC[C@@H](N3Cc4c(C)cc(CO)cc4C3=O)CC2)ccc1C` [Example 214, (1s,4s)-4-(6-(Hydroxymethyl)-4-methyl-1-oxoisoindolin-2-yl)-N-(3-methoxy-4-methylphenyl)cyclohexanecarboxamide], the IC50 lay in the range of 0.1 to 1 µM.

The experiment is the same for the next values; noted with them: OGG1/APEX IC50, 1 nM OGG1+2 nM APEX+6 nM dsDNA (8-oxo-dG substrate); pH 7.5; RT 40 min.
Turning to `COc1cc(NC(=O)[C@H]2CC[C@@H](N3Cc4c(C)cc(N)cc4C3=O)CC2)ccc1C` [Example 192, (1s,4s)-4-(6-Amino-4-methyl-1-oxoisoindolin-2-yl)-N-(3-methoxy-4-methylphenyl)cyclohexanecarboxamide], the IC50 is < 0.1 µM.
